Tests used:
Settings in all cases: 72 h
U2OS [1] = test: cell viability relative to DMSO; higher = less toxic
Caco-2 [2] = test: as above
HepG2 [3] = test: as above
Calu-3 [4] = test: as above
Vero E6 [5] = test: as above
U2OS [6] = test: drug sensitivity score (DSS) for viability; higher = more toxic; extreme values may be limits of the assay
Caco-2 [7] = test: as above
HepG2 [8] = test: as above
Calu-3 [9] = test: as above
Vero E6 [10] = test: as above
U2OS [11] = test: relative viability EC50 (midpoint between 100% and the lowest measured viability); higher = less toxic
Caco-2 [12] = test: as above
HepG2 [13] = test: as above
Calu-3 [14] = test: as above
Vero E6 [15] = test: as above

Structure (SMILES) | cell viability (U2OS [1]; 1 nM) | cell viability (U2OS [1]; 10 nM) | cell viability (U2OS [1]; 100 nM) | cell viability (U2OS [1]; 1000 nM) | cell viability (U2OS [1]; 10000 nM) | cell viability (Caco-2 [2]; 1 nM) | cell viability (Caco-2 [2]; 10 nM) | cell viability (Caco-2 [2]; 100 nM) | cell viability (Caco-2 [2]; 1000 nM) | cell viability (Caco-2 [2]; 10000 nM) | cell viability (HepG2 [3]; 1 nM) | cell viability (HepG2 [3]; 10 nM) | cell viability (HepG2 [3]; 100 nM) | cell viability (HepG2 [3]; 1000 nM) | cell viability (HepG2 [3]; 10000 nM) | cell viability (Calu-3 [4]; 1 nM) | cell viability (Calu-3 [4]; 10 nM) | cell viability (Calu-3 [4]; 100 nM) | cell viability (Calu-3 [4]; 1000 nM) | cell viability (Calu-3 [4]; 10000 nM) | cell viability (Vero E6 [5]; 1 nM) | cell viability (Vero E6 [5]; 10 nM) | cell viability (Vero E6 [5]; 100 nM) | cell viability (Vero E6 [5]; 1000 nM) | cell viability (Vero E6 [5]; 10000 nM) | drug sensitivity score (U2OS [6]) | drug sensitivity score (Caco-2 [7]) | drug sensitivity score (HepG2 [8]) | drug sensitivity score (Calu-3 [9]) | drug sensitivity score (Vero E6 [10]) | relative viability EC50 (U2OS [11]) | relative viability EC50 (Caco-2 [12]) | relative viability EC50 (HepG2 [13]) | relative viability EC50 (Calu-3 [14]) | relative viability EC50 (Vero E6 [15])
CCOC(=O)N[C@@H]1CC[C@@H]2[C@@H](C1)C[C@H]1C(=O)O[C@H](C)[C@H]1[C@H]2/C=C/c1ccc(-c2cccc(F)c2)cn1 [vorapaxar] | 102% | 98.7% | 102% | 102% | 89.1% | 90% | 93.2% | 103% | 105% | 83% | 105% | 112% | 100% | 99.9% | 94.3% | 98% | 95% | 102% | 94.3% | 99.9% | 92.5% | 103% | 99.8% | 92.7% | 105% | 0 | 0.2 | 0 | 0 | 0 | > 10 µM | > 10 µM | > 10 µM | > 10 µM | > 10 µM
N[C@@H]1CONC1=O [cycloserine-(D)] | 96.7% | 96.3% | 96.4% | 96.7% | 97% | 89.5% | 96.2% | 100% | 98.7% | 105% | 106% | 101% | 104% | 89.7% | 108% | 99.6% | 102% | 97.2% | 105% | 96.7% | 99.6% | 104% | 98.2% | 99.8% | 103% | 0 | 0 | 0 | 0 | 0 | > 10 µM | > 10 µM | > 10 µM | > 10 µM | > 10 µM
N=C(N)NCCCC[C@@H]1NC(=O)CCSSC[C@@H](C(N)=O)NC(=O)[C@@H]2CCCN2C(=O)[C@H](Cc2c[nH]c3ccccc23)NC(=O)[C@H](CC(=O)O)NC(=O)CNC1=O [eptifibatide] | 96.6% | 97.4% | 93.7% | 98.5% | 96% | 94.6% | 99.5% | 85.8% | 95.4% | 95.6% | 97% | 92.6% | 94.7% | 87.1% | 95.5% | 96.4% | 104% | 100% | 103% | 101% | 105% | 95.2% | 100% | 94.8% | 83.3% | 0 | 0 | 0 | 0 | 0.9 | > 10 µM | > 10 µM | > 10 µM | > 10 µM | > 10 µM
COCCNC(=O)COc1ccc(OCCNC[C@H](O)COc2ccccc2)cc1 [ZD-7114] | 98.4% | 94.5% | 104% | 102% | 102% | 95.5% | 95.1% | 94.7% | 86.2% | 103% | 100% | 106% | 93.7% | 104% | 97.1% | 99.1% | 97.2% | 106% | 90% | 108% | 103% | 101% | 96.7% | 104% | 96.5% | 0 | 0 | 0 | 0 | 0 | > 10 µM | > 10 µM | > 10 µM | > 10 µM | > 10 µM

Source: the supplement of paper PMC13380429
